This is an account of results in the C3SDB collision cross section collection.

SMILES strings stand for the structures. Values joined by “and” are separate entries in the source; they are usually repeats but may differ in a detail not shown here. Equal values may be shown once.

The conditions of data set [1]: instrument: DT, single field, calibrated with Agilent tune mix (Agilent).
For data set [2] the following is noted: [M+H]+; instrument: TW.
The conditions of data set [3]: instrument: DT, single field.
For data set [4] the following is noted: [M+Na]+; instrument: DT; stepped-field.

As to `C[C@]12CCC(=O)C=C1CC[C@@H]1[C@@H]2C(=O)C[C@@]2(C)[C@H]1CC[C@]2(O)C(=O)CO` [Cortisone], the “collision cross section (N2)” value in data set [1] ([M+H]+) is 188.6 Å²; in data set [1] ([M-H2O-H]-) it was 180.07 Å²; in data set [2], 184 Å².
As to `CCCCC/C=C\C/C=C\CCCCCCCC(=O)O[C@@H](CO)COC(=O)CCCCCCCCCCCC` [DG(31:2)], in data set [3] ([M+NH4]+), the “collision cross section (N2)” value was 249.72 Å².
On the same count and under the same terms, the same measure for `CCCCCCCC/C=C\CCCCCCCCCC(=O)O[C@@H](CO)COC(=O)CCCCCCCCCCC` [DG(32:1)]: 255.8 Å²; for `CCCCC/C=C\C/C=C\C/C=C\CCCCCCCCC(=O)O[C@@H](CO)COC(=O)CCCCCCCCCCCCC` [DG(36:3)]: 261.08 Å²; for `CCCCC/C=C\C/C=C\C/C=C\CCCCC(=O)OC[C@H](CO)OC(=O)CCCCCCC/C=C\CCCCCCCC` [DG(36:4)]: 257.21 Å².
As to `CCCC/C=C\CCCCCCCC(=O)OC[C@H](CO)OC(=O)CCCCC/C=C\C/C=C\C/C=C\C/C=C\CCCCC` [DG(36:5)], in data set [3] ([M+NH4]+), the “collision cross section (N2)” value amounted to 254.91 Å².
`CCCCC/C=C\C/C=C\C/C=C\C/C=C\CCCC(=O)O[C@@H](CO)COC(=O)CCCC/C=C\C/C=C\C/C=C\CCCCC` [DG(38:7)]: the “collision cross section (N2)” value in data set [3] ([M+NH4]+) came to 259.31 Å².
With `CC/C=C\C/C=C\C/C=C\C/C=C\C/C=C\CCCCCC(=O)O[C@@H](CO)COC(=O)CCCC/C=C\C/C=C\C/C=C\CCCCC` [DG(40:8)], the “collision cross section (N2)” value in data set [3] ([M+NH4]+) is given as 266.74 Å².
Take `CCCCCCCCCCCCC=CCC=CCC=CCC=CCC(=O)N[C@@H](COP(=O)([O-])OCC[N+](C)(C)C)[C@H](O)CC=CCCCCCCCCCCCC` [SM(43:5)]: in data set [3] ([M+H]+), the “collision cross section (N2)” value is 301.97 Å².
Turning to `CCCCCC/C=C\CCCCCCCC(=O)OC[C@@H](COC(=O)CCCCCCCCCCC)OC(=O)CCCCCCCCCCC` [TG(40:1)], the “collision cross section (N2)” value in data set [3] ([M+NH4]+) is 282.64 Å² and 284.9 Å²; in data set [3] ([M+Na]+) it was 280.45 Å² and 283.77 Å².
For `CCCCCCCCCC/C=C\CCCCCCCCCC(=O)OC[C@@H](COC(=O)CCCCCCCCCCC)OC(=O)CCCCCCCCCCC` [TG(46:1)], the “collision cross section (N2)” value in data set [3] ([M+Na]+) was 302.27 Å² and 304.44 Å².
`CCCCCCCCCC/C=C\CCCCCCCCCC(=O)OC[C@@H](COC(=O)CCCCCCCCCCCCC)OC(=O)CCCCCCCCCCCCC` [TG(50:1)]: the “collision cross section (N2)” value in data set [3] ([M+Na]+) was 315.05 Å² and 316.8 Å².
The same measure, in the same setting: the same measure for `CCCCCCCCC/C=C\CCCCCCCC(=O)OC[C@@H](COC(=O)CCCCCCCCCCCCCCC)OC(=O)CCCCCCCCCCCCCCC` [TG(51:1)]: 317.97 Å² and 320.06 Å².
As for `CCCCC/C=C\CCCCCCCC(=O)OC[C@H](COC(=O)CCCCCCC/C=C\CCCCCCCCC)OC(=O)CCCCCCC/C=C\CCCCCCCCC` [TG(53:3)], the “collision cross section (N2)” value in data set [3] ([M+Na]+) was 319.33 Å² and 321.38 Å².
For the compound `CCCCC/C=C\CCCCCCCC(=O)OC[C@H](COC(=O)CCCCCCCCCCCCCCCCCCC)OC(=O)CCCCCCCCCCCCCCCCCCC` [TG(55:1)], the “collision cross section (N2)” value in data set [3] ([M+NH4]+) was 334.9 Å² and 337.31 Å² and 332.94 Å².
Take `c1ccc2[nH]c(-c3cscn3)nc2c1` [Thiabendazole]: the “collision cross section (N2)” value in data set [4] is 164.17 Å²; in data set [2] it was 136.19 Å².
Consider `O=C(NC(=O)c1ccccc1Cl)Nc1ccc(OC(F)(F)F)cc1` [Triflumuron], for which, in data set [2], the “collision cross section (N2)” value is on record as 169.88 Å².
On to `CC1(C)CC/C(=C\c2ccc(Cl)cc2)C1(O)Cn1cncn1` (stereo not drawn) [Triticonazole], for which the “collision cross section (N2)” value in data set [2] was found to be 179.18 Å².
As for `CC[C@H]1OC(=O)C[C@@H](O)[C@H](C)[C@@H](O[C@@H]2O[C@H](C)[C@@H](O[C@H]3C[C@@](C)(O)[C@@H](O)[C@H](C)O3)[C@H](N(C)C)[C@H]2O)[C@@H](CC=O)C[C@@H](C)C(=O)/C=C/C(C)=C/[C@@H]1CO[C@@H]1O[C@H](C)[C@@H](O)[C@@H](OC)[C@H]1OC` [Tylosine], in data set [2], the “collision cross section (N2)” value was 332.4 Å².
